Data from ChEMBL document CHEMBL3526020, “Significance of peptide transporter 1 in the intestinal permeability of valacyclovir in wild-type and PepT1 knockout mice” (Drug Metab Dispos, 2013).

Legend:
[1] = AUC (0 to 180 mins) in wild type mouse treated with 25 nmol/g, po of valacyclovir; format: ADME, organism-based; parameters: time < 3 hr, dose 25 nmol/g, route oral; conditions: plasma
[2] = AUC (0 to 180 mins) in PepT1 knockout mouse treated with 25 nmol/g, po of valacyclovir; format: ADME, organism-based; parameters: time < 3 hr, dose 25 nmol/g, route oral; conditions: plasma
[3] = Cmax in wild type mouse treated with 25 nmol/g, po of valacyclovir; format: ADME, organism-based; parameters: dose 25 nmol/g, route oral; conditions: in vivo
[4] = Cmax in PepT1 knockout mouse treated with 25 nmol/g, po of valacyclovir; format: ADME, organism-based; parameters: dose 25 nmol/g, route oral; conditions: in vivo
[5] = Tmax in wild type mouse treated with 25 nmol/g, po of valacyclovir; format: ADME, organism-based; conditions: in vivo
[6] = Tmax in PepT1 knockout mouse treated with 25 nmol/g, po of valacyclovir; format: ADME, organism-based; conditions: in vivo
[7] = Chemical stability of the compound; format: physicochemical
Plasma [8] = test: Drug level in mouse portal vein plasma treated with valacyclovir at 100 uM by HPLC analysis; format: ADME, cell-free
PepT1 (SLC15A1) [9] = target: T1, PepT1 (SLC15A1) (Mus musculus, UniProt Q9JIP7); test: Effective permeability of the compound assessed as PepT1-mediated drug uptake in wild type mouse jejunum at 100 uM by HPLC analysis; format: ADME; conditions: read-out: Peff
T1 sequence (Q9JIP7 whole entry): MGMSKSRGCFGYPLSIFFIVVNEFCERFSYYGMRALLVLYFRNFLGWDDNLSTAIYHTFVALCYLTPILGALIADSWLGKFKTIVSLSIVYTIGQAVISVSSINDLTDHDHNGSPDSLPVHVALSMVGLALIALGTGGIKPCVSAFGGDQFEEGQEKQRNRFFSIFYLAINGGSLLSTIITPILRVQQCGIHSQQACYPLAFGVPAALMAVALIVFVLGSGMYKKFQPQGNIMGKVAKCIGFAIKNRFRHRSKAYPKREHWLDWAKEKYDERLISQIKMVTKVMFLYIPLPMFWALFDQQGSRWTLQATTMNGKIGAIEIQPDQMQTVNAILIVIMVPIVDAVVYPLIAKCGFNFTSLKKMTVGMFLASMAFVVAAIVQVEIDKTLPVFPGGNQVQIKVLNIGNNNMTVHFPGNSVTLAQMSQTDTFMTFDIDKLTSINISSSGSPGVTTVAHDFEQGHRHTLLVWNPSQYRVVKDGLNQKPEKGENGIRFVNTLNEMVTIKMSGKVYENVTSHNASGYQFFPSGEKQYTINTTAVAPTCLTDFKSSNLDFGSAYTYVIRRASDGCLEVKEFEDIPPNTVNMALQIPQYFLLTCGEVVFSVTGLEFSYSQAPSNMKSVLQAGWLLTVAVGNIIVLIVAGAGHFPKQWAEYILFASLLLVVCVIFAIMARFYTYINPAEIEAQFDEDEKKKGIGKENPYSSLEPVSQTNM

[10] = Effective permeability of the compound in PepT1 knockout mouse jejunum at 100 uM by HPLC analysis; format: ADME, tissue-based; conditions: read-out: Peff
[11] = Drug uptake in human Caco2 cells; format: ADME, cell-based; conditions: Caco-2 cells
[12] = Drug uptake in rat jejunum; format: ADME, tissue-based
[13] = Permeability of the compound in human jejunum; format: ADME, tissue-based; conditions: read-out: permeability
Ileum [14] = test: Effective permeability of the compound in PepT1 knockout mouse ileum at 100 uM by HPLC analysis relative to wild type mouse; format: ADME, tissue-based
Colon [15] = test: Effective permeability of the compound in PepT1 knockout mouse colon at 100 uM by HPLC analysis relative to wild type mouse; format: ADME
Jejunum [16] = test: Drug degradation in mouse jejunum at 100 uM by chromatographic analysis; format: ADME, tissue-based
Ileum [17] = test: Drug degradation in mouse ileum at 100 uM by chromatographic analysis; format: ADME, tissue-based
Duodenum [18] = test: Drug degradation in mouse duodenum at 100 uM by chromatographic analysis; format: ADME, tissue-based
Colon [19] = test: Drug degradation in mouse colon at 100 uM by chromatographic analysis; format: ADME, tissue-based
Plasma [20] = test: Prodrug activation in mouse portal vein plasma assessed as formation of acyclovir at 100 uM by HPLC analysis; format: cell-free
[21] = (§1) Drug uptake in wild type mouse jejunum at 0.01 to 50 mM by nonlinear Michaelis-Menten equation analysis; format: ADME, tissue-based; conditions: mouse, jejunum
Jejunum [22] = test: as §1; format: ADME, tissue-based
Jejunum [23] = test: Drug uptake in wild type mouse jejunum at 100 uM at pH 6.5 by HPLC analysis in presence of PepT1 substrate GlySar; format: ADME, tissue-based; conditions: in vivo, pH 6.5, 100 µM
Jejunum [24] = test: Drug uptake in wild type mouse jejunum at 100 uM at pH 6.5 by HPLC analysis in presence of PepT1 substrate cefadroxil; format: ADME, tissue-based; conditions: in vivo, pH 6.5, 100 µM
Jejunum [25] = test: Drug uptake in wild type mouse jejunum at 100 uM at pH 6.5 by HPLC analysis in presence of ATB0,+ substrate L-valine; format: ADME, tissue-based; conditions: in vivo, pH 6.5, 100 µM
Jejunum [26] = test: Drug uptake in wild type mouse jejunum at 100 uM at pH 6.5 by HPLC analysis in presence of PhT1/2 substrate L-histidine; format: ADME, tissue-based; conditions: in vivo, pH 6.5, 100 µM
Jejunum [27] = test: Drug uptake in wild type mouse jejunum at 100 uM at pH 6.5 by HPLC analysis in presence of organic anion substrate PAH; format: ADME, tissue-based; conditions: in vivo, pH 6.5, 100 µM
Jejunum [28] = test: Drug uptake in wild type mouse jejunum at 100 uM at pH 6.5 by HPLC analysis in presence of organic cation substrate TEA; format: ADME, tissue-based; conditions: in vivo, pH 6.5, 100 µM
PepT1 (SLC15A1) [29] = target: T1, PepT1 (SLC15A1); test: Effective permeability of the compound assessed as PepT1-mediated drug uptake in wild type mouse duodenum at 100 uM by HPLC analysis; format: ADME; conditions: read-out: Peff
PepT1 (SLC15A1) [30] = target: T1, PepT1 (SLC15A1); test: Effective permeability of the compound assessed as PepT1-mediated drug uptake in wild type mouse ileum at 100 uM by HPLC analysis; format: ADME, tissue-based; conditions: read-out: Peff
PepT1 (SLC15A1) [31] = target: T1, PepT1 (SLC15A1); test: Effective permeability of the compound assessed as PepT1-mediated drug uptake in wild type mouse colon at 100 uM by HPLC analysis; format: ADME; conditions: not told, read-out: Peff
Duodenum [32] = test: Effective permeability of the compound in PepT1 knockout mouse duodenum at 100 uM by HPLC analysis relative to wild type mouse; format: ADME
Jejunum [33] = test: Effective permeability of the compound in PepT1 knockout mouse jejunum at 100 uM by HPLC analysis relative to wild type mouse; format: ADME, tissue-based
[34] = Permeability in mouse jejunum; format: ADME, tissue-based; conditions: read-out: permeability
[35] = substrate: CC(C)[C@H](N)C(=O)OCCOCn1cnc2c(=O)[nH]c(N)nc21; test: Permeability of the compound assessed as human PepT1-mediated drug uptake in Xenopus oocytes; format: ADME, cell-based
[36] = substrate: CC(C)[C@H](N)C(=O)OCCOCn1cnc2c(=O)[nH]c(N)nc21; test: Permeability of the compound assessed as human PepT1-mediated drug uptake in MDCK cells; format: ADME, cell-based
[37] = substrate: CC(C)[C@H](N)C(=O)OCCOCn1cnc2c(=O)[nH]c(N)nc21; test: Permeability of the compound assessed as human PepT1-mediated drug uptake in CHO cells at pH 5.5; format: ADME, cell-based
[38] = substrate: CC(C)[C@H](N)C(=O)OCCOCn1cnc2c(=O)[nH]c(N)nc21; test: Permeability of the compound assessed as human PepT1-mediated drug uptake in CHO cells at pH 7.9; format: ADME, cell-based

For `Nc1nc2c(ncn2COCCO)c(=O)[nH]1` [ACYCLOVIR], the AUC(0-t) at 3 h [1] was 12.3 µM·h, the AUC(0-t) at 3 h [2] was 5.02 µM·h and the Cmax [3] was 9.3 µM. The Cmax [4] was 2 µM, the Tmax [5] was 25 min and the Tmax [6] was 70 min. The Stability [7] was less than 5%, the Drug metabolism (Plasma [8]) was “metabolite_detected” and the Papp at 100 µM (PepT1 (SLC15A1) [9]) was 4 ×10⁻⁶ cm/s. The Papp at 100 µM [10] was 7.4 ×10⁻⁶ cm/s.

Work on `CC(C)[C@H](N)C(=O)OCCOCn1cnc2c(=O)nc(N)[nH]c21.Cl` [VALACYCLOVIR HYDROCHLORIDE] yielded a Km [11] of 1.6 mM, a Km [12] of 1.2 mM and a Papp [13] of 166 ×10⁻⁶ cm/s. The Peff (Ileum [14]) was less than 10%, the Peff (Colon [15]) was less than 10% and the Stability [7] was less than 5%. The Stability (Jejunum [16]) was “Unstable”, the Stability (Ileum [17]) was “Unstable” and the Stability (Duodenum [18]) was “Unstable”. For the same molecule, the Stability (Colon [19]) was “Unstable”, the Drug metabolism (Plasma [20]) was “metabolite_detected” and the Km at up to 50000 µM [21] was 10.2 mM. For the same molecule, the Kd (Jejunum [22]) was 3 ×10⁻⁵ cm/s, the Drug uptake (Jejunum [22]; mouse, in vivo, 50000 µM) was 82% and the Vmax (Jejunum [22]; mouse, in vivo, 50000 µM) was 1.4 nmol/cm2/s. The Drug uptake (Jejunum [23]) was “Not Active”, the Drug uptake (Jejunum [24]) was “Not Active” and the Drug uptake (Jejunum [25]) was “Active”. The Drug uptake (Jejunum [26]) was “Active”, the Drug uptake (Jejunum [27]) was “Active” and the Drug uptake (Jejunum [28]) was “Active”. The Papp at 100 µM (PepT1 (SLC15A1) [9]) was 170 ×10⁻⁶ cm/s, the Papp at 100 µM (PepT1 (SLC15A1) [29]) was 240 ×10⁻⁶ cm/s and the Papp at 100 µM (PepT1 (SLC15A1) [30]) was 210 ×10⁻⁶ cm/s. It also gave a Papp at 100 µM (PepT1 (SLC15A1) [31]) of 27 ×10⁻⁶ cm/s, a Peff (Duodenum [32]) of less than 10% and a Peff (Jejunum [33]) of less than 10%.

With `COCCc1ccc(OCC(O)CNC(C)C)cc1` (stereo not drawn) [METOPROLOL] the Papp [13] was 134 ×10⁻⁶ cm/s and the Papp [34] was 50 ×10⁻⁶ cm/s.

B1: Solute carrier family 15 member 1 (Homo sapiens) (protein)
chain: MGMSKSHSFFGYPLSIFFIVVNEFCERFSYYGMRAILILYFTNFISWDDNLSTAIYHTFVALCYLTPILGALIADSWLGKFKTIVSLSIVYTIGQAVTSVSSINDLTDHNHDGTPDSLPVHVVLSLIGLALIALGTGGIKPCVSAFGGDQFEEGQEKQRNRFFSIFYLAINAGSLLSTIITPMLRVQQCGIHSKQACYPLAFGVPAALMAVALIVFVLGSGMYKKFKPQGNIMGKVAKCIGFAIKNRFRHRSKAFPKREHWLDWAKEKYDERLISQIKMVTRVMFLYIPLPMFWALFDQQGSRWTLQATTMSGKIGALEIQPDQMQTVNAILIVIMVPIFDAVLYPLIAKCGFNFTSLKKMAVGMVLASMAFVVAAIVQVEIDKTLPVFPKGNEVQIKVLNIGNNTMNISLPGEMVTLGPMSQTNAFMTFDVNKLTRINISSPGSPVTAVTDDFKQGQRHTLLVWAPNHYQVVKDGLNQKPEKGENGIRFVNTFNELITITMSGKVYANISSYNASTYQFFPSGIKGFTISSTEIPPQCQPNFNTFYLEFGSAYTYIVQRKNDSCPEVKVFEDISANTVNMALQIPQYFLLTCGEVVFSVTGLEFSYSQAPSNMKSVLQAGWLLTVAVGNIIVLIVAGAGQFSKQWAEYILFAALLLVVCVIFAIMARFYTYINPAEIEAQFDEDEKKNRLEKSNPYFMSGANSQKQM
Work on B1 yielded a Km [35] of 5.9 mM, a Km [36] of 3.8 mM and a Km [37] of 7.4 mM. For the same molecule, the Km [38] was 2.2 mM.
